In US9011879B2 (priority 2009, dated 2015):

Columns and labels:
sympathetic neurons = conditions: cited from earlier work
[1] = test system: kidney norepinephrine (NE); set-up: species or system porcine; conditions: pig, in vivo
renal arteries = conditions: pig, in vivo

Compound	concentration accumulated within neurons in vivo (sympathetic neurons)	average NE level in renal cortex tissue [1]	reduction in renal cortex NE [1]	perivascular indications of denervation (histology) (renal arteries)
N=C(N)NCCN1CCCCCCC1 [guanethidine, Guanidine, [2-(hexahydro-1(2H)-azocinyl)ethyl]-]	500 to 1000 µM	–	–	–
Guanidine, [2-(hexahydro-1(2H)-azocinyl)ethyl]-, sulfate (1:1) [Guanethidine monosulfate]	–	64	86%	nerve degeneration characterized by hypervacuolization and eosinophilia
